Reference: US9663511B2, “Sphingosine 1-phosphate receptor antagonists” (ARROYO BIOSCIENCES, LLC, priority 2012, dated 2017)
Several values for one entry are separate records, joined by “and”; a condition that tells them apart may be missing. Identical values can stand only once. Like-named read-outs stand apart in the source and are kept apart here.

Legend:
[1] = Microsomal intrinsic clearance; conditions: mouse, liver microsomes, mouse microsomes, test conc. 1 μM
[2] = target: S1P2 receptor (Homo sapiens (Human), UniProt O95136); assay: Antagonist assay (FLIPR TETRA, inhibition of reference agonist EC80) on S1P2; type: cell-based; conditions: tested as the citrate salt
Sequence of S1P2 receptor (O95136 whole entry): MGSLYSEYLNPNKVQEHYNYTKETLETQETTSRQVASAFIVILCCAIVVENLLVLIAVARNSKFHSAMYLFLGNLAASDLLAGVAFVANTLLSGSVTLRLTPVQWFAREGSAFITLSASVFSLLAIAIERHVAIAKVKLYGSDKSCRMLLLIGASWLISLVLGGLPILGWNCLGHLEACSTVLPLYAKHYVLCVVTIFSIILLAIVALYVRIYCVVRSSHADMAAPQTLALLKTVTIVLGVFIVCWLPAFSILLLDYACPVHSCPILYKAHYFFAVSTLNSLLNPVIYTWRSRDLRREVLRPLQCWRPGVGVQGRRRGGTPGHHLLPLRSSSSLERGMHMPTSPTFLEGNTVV
Protocol: (§1) Antagonist percentage inhibition determinations were obtained by assaying sample compounds and referencing the control (EC80) wells for each profiled (GPCR) which evaluated binding to S1P2 and S1P5 receptors. The samples were run using a single addition assay protocol. The protocol design is as follows.
(§2) Unless specified otherwise, the sample compounds were diluted in 100% anhydrous DMSO including all dilutions. The compounds were tested as the citrate salt (1 equivalent per molecule). If the sample compound is provided in a different solvent all master stock dilutions are performed in the specified solvent. All control wells contained identical solvent final concentrations as the sample compound wells.
(§3) The sample compounds were transferred from a master stock solution into a daughter plate that was used in the assay. Each sample compound was diluted into an assay buffer (1×HBSS with 20 mM HEPES, 2.5 mM Probenecid, and 0.4% Free Fatty Acid BSA) at an appropriate concentration to obtain final specified concentrations.
(§4) Using the EC80 values that were determined real-time, stimulated all pre-incubated sample compounds and reference antagonists (if applicable) were compared with the EC80 values of reference agonist. These were read for 180 seconds using the FLIPR^TETRA (This assay added reference agonist to respective wells-then fluorescences measurements were collected to calculate IC50 values). All plates were subjected to appropriate baseline corrections. Once baseline corrections were processed, maximum fluorescence values were exported and data manipulated to calculate percentage activation, percentage inhibition and Z′.

[3] = target: S1P5 receptor (Homo sapiens (Human), UniProt Q9H228); assay: Antagonist assay (FLIPR TETRA, inhibition of reference agonist EC80) on S1P5; type: cell-based; conditions: tested as the citrate salt
Sequence of S1P5 receptor (Q9H228 whole entry): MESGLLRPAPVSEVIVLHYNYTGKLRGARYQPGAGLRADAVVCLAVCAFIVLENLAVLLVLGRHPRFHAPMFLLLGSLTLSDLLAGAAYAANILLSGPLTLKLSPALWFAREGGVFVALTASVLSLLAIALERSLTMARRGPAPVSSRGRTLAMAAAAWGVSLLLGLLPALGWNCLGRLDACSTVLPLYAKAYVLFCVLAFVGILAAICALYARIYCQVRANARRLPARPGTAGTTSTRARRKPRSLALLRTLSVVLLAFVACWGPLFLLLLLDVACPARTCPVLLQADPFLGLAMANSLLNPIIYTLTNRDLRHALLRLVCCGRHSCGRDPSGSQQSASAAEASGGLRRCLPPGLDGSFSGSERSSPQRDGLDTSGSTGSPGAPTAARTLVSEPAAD
Protocol: as §1, §2, §3, §4

[4] = Blood concentrations and pharmacokinetics after 1 mg/kg i.v. in mice; type: in vivo, mouse; conditions: for pharmacokinetics / blood levels following intravenous injection in mice (in words): comparison between compounds
Protocol: 1 mg/kg of the compound was injected by IV and blood was withdrawn at the times in table 1. The amount of starting compound was quantified by a standard curve using MS/MS determinations.

[5] = In vitro plasma protein binding; type: in vitro ADME, mouse; conditions: mouse plasma, test concentration 5 nM

SMILES: C=CCn1nc(C)c2c(C(C)C)cc(NNC(=O)Nc3cc(Cl)nc(Cl)c3)nc21 [Compound 1]
- microsomal CLint at 1 μM ([1]; NADPH-dependent Clint (microsomal intrinsic clearance)): 1170 µL/min/mg
- half-life at 1 μM ([1]; NADPH-dependent T1/2 (half-life)): 0.0333 h
- microsomal CLint at 1 μM ([1]; NADPH-free Clint (microsomal intrinsic clearance)): 48 µL/min/mg
- half-life at 1 μM ([1]; NADPH-free T1/2 (half-life)): 0.8 h
- IC50 [2]: 1.2 nM
- IC50 [3]: 2.2 nM
- AUC0-inf ([4]; mouse blood, individual mice): 92.4 ng·h/mL and 192 ng·h/mL
- AUC0-inf Extrapolated ([4]; mouse blood, individual mice): 19.3% and 63.8%
- AUC0-tlast ([4]; mouse blood, individual mice): 74.6 ng·h/mL and 69.5 ng·h/mL
- AUMC0-inf ([4]; mouse blood, individual mice): 604 h^2*ng/mL and 9010 h^2*ng/mL
- AUMC0-inf Extrapolated ([4]; mouse blood, individual mice): 74.1% and 98.2%
- AUMC0-tlast ([4]; mouse blood, individual mice): 12.7 h^2*ng/mL and 157 h^2*ng/mL and 166 h^2*ng/mL
- C0 ([4]; mouse blood, individual mice): 262 ng/mL and 251 ng/mL
- CL ([4]; mouse blood, individual mice): 180 mL/min/kg and 86.7 mL/min/kg
- MRT0-inf ([4]; mouse blood, individual mice): 6.53 h and 46.9 h
- MRT0-tlast ([4]; mouse blood, individual mice): 0.236 h and 2.10 h and 2.39 h
- Terminal half-life ([4]; mouse blood, individual mice): 9.08 h and 41.7 h
- Vss ([4]; mouse blood, individual mice): 70.7 L/kg and 244 L/kg
- AUC0-inf Extrapolated, Mean S.D. ([4]; mouse blood, mean): 41.5 (n = 2) %
- AUMC0-inf Extrapolated, Mean S.D. ([4]; mouse blood, mean): 86.1 (n = 2) %
- AUMC0-inf, Mean S.D. ([4]; mouse blood, mean): 4810 (n = 2) h^2*ng/mL
- AUMC0-tlast, Mean S.D. ([4]; mouse blood, mean): 112 ± 86.0 h^2*ng/mL
- C0, Mean S.D. ([4]; mouse blood, mean): 295 ± 66.2 ng/mL
- Blood Concentrations ([4]; mouse, 5 min, individual mice, LLOQ = 1 ng/mL): 152 ng/mL and 143 ng/mL
- Blood Concentrations ([4]; mouse, 0.25 h, individual mice, LLOQ = 1 ng/mL): 51.2 ng/mL and 46.3 ng/mL
- Blood Concentrations ([4]; mouse, 0.5 h, individual mice, LLOQ = 1 ng/mL): 22.8 ng/mL and 17.1 ng/mL
- Blood Concentrations ([4]; mouse, 1 h, individual mice, LLOQ = 1 ng/mL): 7.90 ng/mL and 6.44 ng/mL
- Blood Concentrations ([4]; mouse, 2 h, individual mice, LLOQ = 1 ng/mL): 1.13 ng/mL and 3.12 ng/mL and 2.96 ng/mL
- Blood Concentrations ([4]; mouse, 4 h, individual mice, LLOQ = 1 ng/mL): BLQ and 1.98 ng/mL
- Blood Concentrations ([4]; mouse, 6 h, individual mice, LLOQ = 1 ng/mL): BLQ and 2.25 ng/mL
- Blood Concentrations ([4]; mouse, 12 h, individual mice, LLOQ = 1 ng/mL): BLQ and 2.04 ng/mL
- pharmacokinetics / blood levels following intravenous injection in mice (in words) ([4]; mouse): substantially improved pharmacokinetics
- pharmacokinetics / blood levels following intravenous injection in mice (in words) ([4]; mouse, listed as compound 1): highest drug blood levels over time
- AUC(0-t) ([4]; mouse, whole blood, iv, 1 mg/kg, mouse blood, individual mice, read-out: AUC0-tlast): 53.9 ng·h/mL
- C0 ([4]; mouse, whole blood, iv, 1 mg/kg, mouse blood, individual mice, read-out: C0): 371 ng/mL
- AUC0-inf ([4]; mouse, whole blood, iv, 1 mg/kg, mouse blood, mean, read-out: AUC0-inf, Mean S.D.): 142 ng·h/mL
- AUC(0-t) ([4]; mouse, whole blood, iv, 1 mg/kg, mouse blood, mean, read-out: AUC0-tlast, Mean S.D.): 66 ± 10.8 ng·h/mL
- clearance ([4]; mouse, whole blood, iv, 1 mg/kg, mouse blood, mean, read-out: CL, Mean S.D. (converted)): 134 mL/min/kg
- MRT inf ([4]; mouse, whole blood, iv, 1 mg/kg, mouse blood, mean, read-out: MRT0-inf, Mean S.D.): 26.7 h
- MRT last ([4]; mouse, whole blood, iv, 1 mg/kg, mouse blood, mean, read-out: MRT0-tlast, Mean S.D.): 1.58 h
- half-life ([4]; mouse, whole blood, iv, 1 mg/kg, mouse blood, mean, read-out: Terminal half-life, Mean S.D. (converted)): 25.4 h
- Vd ([4]; mouse, whole blood, iv, 1 mg/kg, mouse blood, mean, read-out: Vss, Mean S.D.): 157 L/kg
- concentration at 5 min ([4]; mouse, whole blood, iv, 1 mg/kg, mouse, 5 min, individual mice, LLOQ = 1 ng/mL, read-out: Blood Concentrations): 188 ng/mL
- concentration at 5 min ([4]; mouse, whole blood, iv, 1 mg/kg, mouse, 5 min, mean of 3 mice, read-out: Blood Concentrations, Mean S.D.): 161 ± 23.8 ng/mL
- concentration at 0.25 h ([4]; mouse, whole blood, iv, 1 mg/kg, mouse, 0.25 h, individual mice, LLOQ = 1 ng/mL, read-out: Blood Concentrations): 48.3 ng/mL
- concentration at 0.25 h ([4]; mouse, whole blood, iv, 1 mg/kg, mouse, 0.25 h, mean of 3 mice, read-out: Blood Concentrations, Mean S.D.): 48.6 ± 2.46 ng/mL
- concentration at 0.5 h ([4]; mouse, whole blood, iv, 1 mg/kg, mouse, 0.5 h, individual mice, LLOQ = 1 ng/mL, read-out: Blood Concentrations): 14.9 ng/mL
- concentration at 0.5 h ([4]; mouse, whole blood, iv, 1 mg/kg, mouse, 0.5 h, mean of 3 mice, read-out: Blood Concentrations, Mean S.D.): 18.3 ± 4.08 ng/mL
- concentration at 1 h ([4]; mouse, whole blood, iv, 1 mg/kg, mouse, 1 h, individual mice, LLOQ = 1 ng/mL, read-out: Blood Concentrations): 5.11 ng/mL
- concentration at 1 h ([4]; mouse, whole blood, iv, 1 mg/kg, mouse, 1 h, mean of 3 mice, read-out: Blood Concentrations, Mean S.D.): 6.48 ± 1.4 ng/mL
- concentration at 2 h ([4]; mouse, whole blood, iv, 1 mg/kg, mouse, 2 h, mean of 3 mice, read-out: Blood Concentrations, Mean S.D.): 2.4 ± 1.11 ng/mL
- concentration at 4 h ([4]; mouse, whole blood, iv, 1 mg/kg, mouse, 4 h, individual mice, LLOQ = 1 ng/mL, read-out: Blood Concentrations): 2.22 ng/mL
- concentration at 4 h ([4]; mouse, whole blood, iv, 1 mg/kg, mouse, 4 h, mean (n = 2 for Cmpd-1), read-out: Blood Concentrations, Mean S.D.): 2.1 ng/mL
- concentration at 6 h ([4]; mouse, whole blood, iv, 1 mg/kg, mouse, 6 h, individual mice, LLOQ = 1 ng/mL, read-out: Blood Concentrations): 2.55 ng/mL
- concentration at 6 h ([4]; mouse, whole blood, iv, 1 mg/kg, mouse, 6 h, mean (n = 2 for Cmpd-1), read-out: Blood Concentrations, Mean S.D.): 2.4 ng/mL
- concentration at 12 h ([4]; mouse, whole blood, iv, 1 mg/kg, mouse, 12 h, individual mice, LLOQ = 1 ng/mL, read-out: Blood Concentrations): 1.36 ng/mL
- concentration at 12 h ([4]; mouse, whole blood, iv, 1 mg/kg, mouse, 12 h, mean (n = 2 for Cmpd-1), read-out: Blood Concentrations, Mean S.D.): 1.7 ng/mL
- mean fraction bound (%) [5]: 99.9%
